Test results: ChEMBL document CHEMBL1152211, “Structure-activity study at positions 3 and 4 of human neuropeptide S” (Bioorg Med Chem, 2008)
Where a name gives a salt, the structure may show the parent alone. Non-standard residues stand in square brackets, D forms with d. Residues, ends and D or L forms follow the SMILES beside them. *: point of attachment. Arg(NO2) = N=C(NCCC[C@H](N)C(=O)O)N[N+](=O)[O-]; Arg(Me2a) = CN(C)C(=N)NCCC[C@H](N)C(=O)O; Arg(Me2s) = CN=C(NC)NCCC[C@H](N)C(=O)O; Nva(4-oxo) = CC(=O)C[C@H](N)C(=O)O; 2Pal = N[C@@H](Cc1ccccn1)C(=O)O; 3Pal = N[C@@H](Cc1cccnc1)C(=O)O; 4Pal = N[C@@H](Cc1ccncc1)C(=O)O; Tos = Cc1ccc(S(=O)(=O)*)cc1; Dab = NCC[C@H](N)C(=O)O; Nva = CCC[C@H](N)C(=O)O; Abu = CC[C@H](N)C(=O)O; Tfa = O=C(C(F)(F)F)*

Assays:
Type in all cases: functional, cell-based
Neuropeptide S receptor = molecular target: T1, Neuropeptide S receptor (Mus musculus, UniProt Q8BZP8); experiment: Agonist activity at mouse NPSR expressed in HEK293 cells assessed as increase in intracellular calcium mobilization by FLIPR
T1 sequence (Q8BZP8 whole entry): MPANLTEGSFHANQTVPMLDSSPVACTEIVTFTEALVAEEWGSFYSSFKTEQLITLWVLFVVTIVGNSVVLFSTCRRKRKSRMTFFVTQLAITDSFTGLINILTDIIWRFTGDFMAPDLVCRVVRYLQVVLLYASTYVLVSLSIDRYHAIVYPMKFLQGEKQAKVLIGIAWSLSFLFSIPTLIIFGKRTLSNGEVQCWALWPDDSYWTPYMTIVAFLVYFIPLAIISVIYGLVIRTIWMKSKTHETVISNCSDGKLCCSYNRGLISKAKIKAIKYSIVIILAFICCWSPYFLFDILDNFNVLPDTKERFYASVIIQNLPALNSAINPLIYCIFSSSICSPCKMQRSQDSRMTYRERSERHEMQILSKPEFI

[1] = molecular target: T2, Neuropeptide S receptor (Mus musculus) (UniProt Q8BZP8); experiment: Agonist activity at mouse NPSR expressed in HEK293 cells assessed as increase in intracellular calcium mobilization by FLIPR relative to baseline
T2 sequence (whole entry): T1 sequence (Q8BZP8 whole entry)

[2] = molecular target: T2, Neuropeptide S receptor (Mus musculus); experiment: Agonist activity at mouse NPSR expressed in HEK293 cells assessed as increase in intracellular calcium mobilization at 10 uM by FLIPR

EC50 (Neuropeptide S receptor) | Emax [1] | Activity [2] | Molecule
0.0851 µM | 231% |  | CSCC[C@H](NC(=O)CNC(=O)[C@@H](NC(=O)CNC(=O)[C@@H](NC(=O)CNC(=O)[C@H](CC(N)=O)NC(=O)[C@H](CCCCNC(=O)C(F)(F)F)NC(=O)[C@H](Cc1ccccc1)NC(=O)[C@@H](N)CO)C(C)C)[C@@H](C)O)C(=O)N[C@@H](CCCCN)C(=O)N[C@@H](CCCCN)C(=O)N[C@H](C(=O)N[C@@H](CO)C(=O)N[C@@H](Cc1ccccc1)C(=O)N[C@@H](CCC(N)=O)C(=O)N[C@@H](CCCNC(=N)N)C(=O)N[C@@H](C)C(=O)N[C@@H](CCCCN)C(=O)N[C@@H](CO)C(=O)O)[C@@H](C)O (H-SFK(Tfa)NGVGTGMKKTSFQRAKS-OH)
 |  | 104% | CSCC[C@H](NC(=O)CNC(=O)[C@@H](NC(=O)CNC(=O)[C@@H](NC(=O)CNC(=O)[C@H](CC(N)=O)NC(=O)[C@H](CCCNC(=N)NS(=O)(=O)c1ccc(C)cc1)NC(=O)[C@H](Cc1ccccc1)NC(=O)[C@@H](N)CO)C(C)C)[C@@H](C)O)C(=O)N[C@@H](CCCCN)C(=O)N[C@@H](CCCCN)C(=O)N[C@H](C(=O)N[C@@H](CO)C(=O)N[C@@H](Cc1ccccc1)C(=O)N[C@@H](CCC(N)=O)C(=O)N[C@@H](CCCNC(=N)N)C(=O)N[C@@H](C)C(=O)N[C@@H](CCCCN)C(=O)N[C@@H](CO)C(=O)O)[C@@H](C)O (H-SFR(Tos)NGVGTGMKKTSFQRAKS-OH)
 |  | 188% | CNC(=O)C[C@H](NC(=O)[C@H](CCCNC(=N)N)NC(=O)[C@H](Cc1ccccc1)NC(=O)[C@@H](N)CO)C(=O)NCC(=O)N[C@H](C(=O)NCC(=O)N[C@H](C(=O)NCC(=O)N[C@@H](CCSC)C(=O)N[C@@H](CCCCN)C(=O)N[C@@H](CCCCN)C(=O)N[C@H](C(=O)N[C@@H](CO)C(=O)N[C@@H](Cc1ccccc1)C(=O)N[C@@H](CCC(N)=O)C(=O)N[C@@H](CCCNC(=N)N)C(=O)N[C@@H](C)C(=O)N[C@@H](CCCCN)C(=O)N[C@@H](CO)C(=O)O)[C@@H](C)O)[C@@H](C)O)C(C)C (H-SFRD(NHMe)GVGTGMKKTSFQRAKS-OH)
 |  | 89% | CSCC[C@H](NC(=O)CNC(=O)[C@@H](NC(=O)CNC(=O)[C@@H](NC(=O)CNC(=O)[C@H](CC(=O)N(C)C)NC(=O)[C@H](CCCNC(=N)N)NC(=O)[C@H](Cc1ccccc1)NC(=O)[C@@H](N)CO)C(C)C)[C@@H](C)O)C(=O)N[C@@H](CCCCN)C(=O)N[C@@H](CCCCN)C(=O)N[C@H](C(=O)N[C@@H](CO)C(=O)N[C@@H](Cc1ccccc1)C(=O)N[C@@H](CCC(N)=O)C(=O)N[C@@H](CCCNC(=N)N)C(=O)N[C@@H](C)C(=O)N[C@@H](CCCCN)C(=O)N[C@@H](CO)C(=O)O)[C@@H](C)O (H-SFRD(NMe2)GVGTGMKKTSFQRAKS-OH)
 |  | 169% | CSCC[C@H](NC(=O)CNC(=O)[C@@H](NC(=O)CNC(=O)[C@@H](NC(=O)CNC(=O)[C@H](CCN)NC(=O)[C@H](CCCNC(=N)N)NC(=O)[C@H](Cc1ccccc1)NC(=O)[C@@H](N)CO)C(C)C)[C@@H](C)O)C(=O)N[C@@H](CCCCN)C(=O)N[C@@H](CCCCN)C(=O)N[C@H](C(=O)N[C@@H](CO)C(=O)N[C@@H](Cc1ccccc1)C(=O)N[C@@H](CCC(N)=O)C(=O)N[C@@H](CCCNC(=N)N)C(=O)N[C@@H](C)C(=O)N[C@@H](CCCCN)C(=O)N[C@@H](CO)C(=O)O)[C@@H](C)O (H-SFR[Dab]GVGTGMKKTSFQRAKS-OH)
 |  | 136% | CSCC[C@H](NC(=O)CNC(=O)[C@@H](NC(=O)CNC(=O)[C@@H](NC(=O)CNC(=O)[C@H](CC(C)=O)NC(=O)[C@H](CCCNC(=N)N)NC(=O)[C@H](Cc1ccccc1)NC(=O)[C@@H](N)CO)C(C)C)[C@@H](C)O)C(=O)N[C@@H](CCCCN)C(=O)N[C@@H](CCCCN)C(=O)N[C@H](C(=O)N[C@@H](CO)C(=O)N[C@@H](Cc1ccccc1)C(=O)N[C@@H](CCC(N)=O)C(=O)N[C@@H](CCCNC(=N)N)C(=O)N[C@@H](C)C(=O)N[C@@H](CCCCN)C(=O)N[C@@H](CO)C(=O)O)[C@@H](C)O (H-SFR[Nva(4-oxo)]GVGTGMKKTSFQRAKS-OH)
 |  | 240% | CCC[C@H](NC(=O)[C@H](CCCNC(=N)N)NC(=O)[C@H](Cc1ccccc1)NC(=O)[C@@H](N)CO)C(=O)NCC(=O)N[C@H](C(=O)NCC(=O)N[C@H](C(=O)NCC(=O)N[C@@H](CCSC)C(=O)N[C@@H](CCCCN)C(=O)N[C@@H](CCCCN)C(=O)N[C@H](C(=O)N[C@@H](CO)C(=O)N[C@@H](Cc1ccccc1)C(=O)N[C@@H](CCC(N)=O)C(=O)N[C@@H](CCCNC(=N)N)C(=O)N[C@@H](C)C(=O)N[C@@H](CCCCN)C(=O)N[C@@H](CO)C(=O)O)[C@@H](C)O)[C@@H](C)O)C(C)C (H-SFR[Nva]GVGTGMKKTSFQRAKS-OH)
 |  | 19% | CSCC[C@H](NC(=O)CNC(=O)[C@@H](NC(=O)CNC(=O)[C@@H](NC(=O)CNC(=O)[C@H](CC(N)=O)NC(=O)[C@H](Cc1ccccn1)NC(=O)[C@H](Cc1ccccc1)NC(=O)[C@@H](N)CO)C(C)C)[C@@H](C)O)C(=O)N[C@@H](CCCCN)C(=O)N[C@@H](CCCCN)C(=O)N[C@H](C(=O)N[C@@H](CO)C(=O)N[C@@H](Cc1ccccc1)C(=O)N[C@@H](CCC(N)=O)C(=O)N[C@@H](CCCNC(=N)N)C(=O)N[C@@H](C)C(=O)N[C@@H](CCCCN)C(=O)N[C@@H](CO)C(=O)O)[C@@H](C)O (H-SF[2Pal]NGVGTGMKKTSFQRAKS-OH)
 |  | 42% | CSCC[C@H](NC(=O)CNC(=O)[C@@H](NC(=O)CNC(=O)[C@@H](NC(=O)CNC(=O)[C@H](CC(N)=O)NC(=O)[C@H](Cc1cccnc1)NC(=O)[C@H](Cc1ccccc1)NC(=O)[C@@H](N)CO)C(C)C)[C@@H](C)O)C(=O)N[C@@H](CCCCN)C(=O)N[C@@H](CCCCN)C(=O)N[C@H](C(=O)N[C@@H](CO)C(=O)N[C@@H](Cc1ccccc1)C(=O)N[C@@H](CCC(N)=O)C(=O)N[C@@H](CCCNC(=N)N)C(=O)N[C@@H](C)C(=O)N[C@@H](CCCCN)C(=O)N[C@@H](CO)C(=O)O)[C@@H](C)O (H-SF[3Pal]NGVGTGMKKTSFQRAKS-OH)
 |  | 154% | CSCC[C@H](NC(=O)CNC(=O)[C@@H](NC(=O)CNC(=O)[C@@H](NC(=O)CNC(=O)[C@H](CC(N)=O)NC(=O)[C@H](Cc1ccncc1)NC(=O)[C@H](Cc1ccccc1)NC(=O)[C@@H](N)CO)C(C)C)[C@@H](C)O)C(=O)N[C@@H](CCCCN)C(=O)N[C@@H](CCCCN)C(=O)N[C@H](C(=O)N[C@@H](CO)C(=O)N[C@@H](Cc1ccccc1)C(=O)N[C@@H](CCC(N)=O)C(=O)N[C@@H](CCCNC(=N)N)C(=O)N[C@@H](C)C(=O)N[C@@H](CCCCN)C(=O)N[C@@H](CO)C(=O)O)[C@@H](C)O (H-SF[4Pal]NGVGTGMKKTSFQRAKS-OH)
0.513 µM | 218% |  | CC[C@H](NC(=O)[C@H](Cc1ccccc1)NC(=O)[C@@H](N)CO)C(=O)N[C@@H](CC(N)=O)C(=O)NCC(=O)N[C@H](C(=O)NCC(=O)N[C@H](C(=O)NCC(=O)N[C@@H](CCSC)C(=O)N[C@@H](CCCCN)C(=O)N[C@@H](CCCCN)C(=O)N[C@H](C(=O)N[C@@H](CO)C(=O)N[C@@H](Cc1ccccc1)C(=O)N[C@@H](CCC(N)=O)C(=O)N[C@@H](CCCNC(=N)N)C(=O)N[C@@H](C)C(=O)N[C@@H](CCCCN)C(=O)N[C@@H](CO)C(=O)O)[C@@H](C)O)[C@@H](C)O)C(C)C (H-SF[Abu]NGVGTGMKKTSFQRAKS-OH)
0.0224 µM |  |  | CSCC[C@H](NC(=O)CNC(=O)[C@@H](NC(=O)CNC(=O)[C@@H](NC(=O)CNC(=O)[C@H](CC(N)=O)NC(=O)[C@H](CCCNC(=N)N(C)C)NC(=O)[C@H](Cc1ccccc1)NC(=O)[C@@H](N)CO)C(C)C)[C@@H](C)O)C(=O)N[C@@H](CCCCN)C(=O)N[C@@H](CCCCN)C(=O)N[C@H](C(=O)N[C@@H](CO)C(=O)N[C@@H](Cc1ccccc1)C(=O)N[C@@H](CCC(N)=O)C(=O)N[C@@H](CCCNC(=N)N)C(=O)N[C@@H](C)C(=O)N[C@@H](CCCCN)C(=O)N[C@@H](CO)C(=O)O)[C@@H](C)O (H-SF[Arg(Me2a)]NGVGTGMKKTSFQRAKS-OH)
0.0316 µM |  |  | C/N=C(/NC)NCCC[C@H](NC(=O)[C@H](Cc1ccccc1)NC(=O)[C@@H](N)CO)C(=O)N[C@@H](CC(N)=O)C(=O)NCC(=O)N[C@H](C(=O)NCC(=O)N[C@H](C(=O)NCC(=O)N[C@@H](CCSC)C(=O)N[C@@H](CCCCN)C(=O)N[C@@H](CCCCN)C(=O)N[C@H](C(=O)N[C@@H](CO)C(=O)N[C@@H](Cc1ccccc1)C(=O)N[C@@H](CCC(N)=O)C(=O)N[C@@H](CCCNC(=N)N)C(=O)N[C@@H](C)C(=O)N[C@@H](CCCCN)C(=O)N[C@@H](CO)C(=O)O)[C@@H](C)O)[C@@H](C)O)C(C)C (H-SF[Arg(Me2s)]NGVGTGMKKTSFQRAKS-OH)
0.0219 µM | 288% |  | CSCC[C@H](NC(=O)CNC(=O)[C@@H](NC(=O)CNC(=O)[C@@H](NC(=O)CNC(=O)[C@H](CC(N)=O)NC(=O)[C@H](CCCN/C(N)=N/[N+](=O)[O-])NC(=O)[C@H](Cc1ccccc1)NC(=O)[C@@H](N)CO)C(C)C)[C@@H](C)O)C(=O)N[C@@H](CCCCN)C(=O)N[C@@H](CCCCN)C(=O)N[C@H](C(=O)N[C@@H](CO)C(=O)N[C@@H](Cc1ccccc1)C(=O)N[C@@H](CCC(N)=O)C(=O)N[C@@H](CCCNC(=N)N)C(=O)N[C@@H](C)C(=O)N[C@@H](CCCCN)C(=O)N[C@@H](CO)C(=O)O)[C@@H](C)O (H-SF[Arg(NO2)]NGVGTGMKKTSFQRAKS-OH)
 |  | 73% | H-SFDNGVGTGMKKTSFQRAKS-OH
 |  | 89% | H-SFENGVGTGMKKTSFQRAKS-OH
 |  | 46% | H-SFFNGVGTGMKKTSFQRAKS-OH
 |  | 36% | H-SFLNGVGTGMKKTSFQRAKS-OH
 |  | 161% | H-SFNNGVGTGMKKTSFQRAKS-OH
 |  | 146% | H-SFRDGVGTGMKKTSFQRAKS-OH
 |  | 118% | H-SFRFGVGTGMKKTSFQRAKS-OH
 |  | 175% | H-SFSNGVGTGMKKTSFQRAKS-OH
 |  | 129% | H-SFVNGVGTGMKKTSFQRAKS-OH
 |  | 73% | H-SFYNGVGTGMKKTSFQRAKS-OH
